Measurements published in patent publication US20200392150A1, “Diaryl-B-Lactam Compound and Preparation Method and Pharmaceutical Use Thereof” (Fudan University, priority 2016, published 2020).

What was measured:
Test in all cases: In vitro cell growth inhibition assay (MTT)
Format in all cases: cell-based, human
A2780 = A2780 human ovarian cancer cell line, 48 h, MTT; read-out: IC50 A2780
Procedure: (§1) 5000 tumor cells per well were seeded into 96-well plate and allowed to adhere overnight. Cells were treated with various concentrations of tested compounds or DMSO (0.2%, as negative control) for 48 h. Then, the medium along with tested compounds or DMSO was discarded and […] per well MTT containing medium (0.5 mg/mL) was added. After incubation at 37° C. for 4 h, the MTT-containing medium was replaced by DMSO (150 μL per well) to dissolve the formazan crystals. Absorbance of the resulting solution was measured by microplate reader (Biotech ELx800) at 540 nm wavelength. Growth inhibition rates were calculated with the absorbance. Half maximal inhibitory concentration (IC50) of each compound was calculated using GraphPad Prism, version 6.0.

Hela = Hela human cervical cancer cell line, 48 h, MTT; read-out: IC50 Hela
Procedure: as §1

MDA-MB-231 = MDA-MB-231 human breast cancer cell line, 48 h, MTT; read-out: IC50 MDA-MB-231
Procedure: as §1

SKOV3 = conditions: SK-OV-3; SKOV-3 human ovarian cancer cell line, 48 h, MTT; read-out: IC50 SKOV3
Procedure: as §1

| Structure (SMILES) | IC50 (A2780) [nM] | IC50 (Hela) [nM] | IC50 (MDA-MB-231) [nM] | IC50 (SKOV3) [nM] |
| --- | --- | --- | --- | --- |
| CC[C@H]1C(=O)N(c2cc(OC)c(OC)c(OC)c2)[C@H]1c1ccc(OC)c(O)c1 [Compound 106, (3R,4R)-3-ethyl-4-(3-hydroxy-4-methoxyphenyl)-1-(3,4,5-trimethoxyphenyl)azetidin-2-one] | 250 | 320 | 286 | 215 |
| COc1ccc([C@H]2[C@@H](C)C(=O)N2c2cc(OC)c(OC)c(OC)c2)cc1N [Compound 103, (3R,4R)-4-(3-amino-4-methoxyphenyl)-3-methyl-1-(3,4,5-trimethoxyphenyl)azetidin-2-one] | 78 | 61 | 81 | 77 |
| COc1ccc([C@H]2[C@H](C)C(=O)N2c2cc(OC)c(OC)c(OC)c2)cc1OS(=O)(=O)F [Compound 109, 2-methoxy-5-((2R,3S)-3-methyl-4-oxo-1-(3,4,5-trimethoxyphenyl)azetidin-2-yl)phenyl sulfofluoridate] | 21 | 51 | 23 | 34 |
| C=C1C(=O)N(c2cc(OC)c(OC)c(OC)c2)[C@H]1c1ccc(OC)c(OS(=O)(=O)c2ccc(OC)c(OC)c2)c1 [Compound 33, (S)-2-methoxy-5-(3-methylene-4-oxo-1-(3,4,5-trimethoxyphenyl)azetidin-2-yl)phenyl 3,4-dimethoxybenzenesulfonate] | 12300 | 12300 | 13400 | 15200 |
| C=C1C(=O)N(c2cc(OC)c(OC)c(OC)c2)[C@H]1c1ccc(C(C)C)cc1 [Compound 88, (S)-4-(4-isopropylphenyl)-3-methylene-1-(3,4,5-trimethoxyphenyl)azetidin-2-one] | 2120 | 2210 | 2550 | 2470 |
| C=C1C(=O)N(c2cc(OC)cc(OC)c2)[C@H]1c1ccc(OC)c(O)c1 [Compound 49, (S)-1-(3,5-dimethoxyphenyl)-4-(3-hydroxy-4-methoxyphenyl)-3-methyleneazetidin-2-one] | 112 | 295 | 125 | 175 |
| C=C1C(=O)N(c2cc(OC)c(OC)c(OC)c2)[C@H]1c1ccc(OC)c(OCC(=O)OC(C)(C)C)c1 [Compound 13, (S)-tert-butyl 2-(2-methoxy-5-(3-methylene-4-oxo-1-(3,4,5-trimethoxyphenyl)azetidin-2-yl)phenoxy)acetate] | > 10000 | > 10000 | > 10000 | > 10000 |
| C=C1C(=O)N(c2cc(OC)c(OC)c(OC)c2)[C@H]1c1ccc(OC)c(OC(=O)[C@H](C)NC(=O)OC(C)(C)C)c1 [Compound 35, (S)-2-methoxy-5-((S)-3-methylene-4-oxo-1-(3,4,5-trimethoxyphenyl)azetidin-2-yl)phenyl 2-((tert-butoxycarbonyl)amino)propanoate] | 496 | 106 | 496 | 252 |
| C=C1C(=O)N(c2cc(OC)c(OC)c(OC)c2)[C@H]1c1ccc(OC)c(OP(=O)(OCc2ccccc2)OCc2ccccc2)c1 [Compound 37, (S)-dibenzyl (2-methoxy-5-(3-methylene-4-oxo-1-(3,4,5-trimethoxyphenyl)azetidin-2-yl)phenyl) phosphate] | > 20000 | > 20000 | > 20000 | > 20000 |
| C=C1C(=O)N(c2cc(OC)c(OC)c(OC)c2)[C@H]1c1cccc(O)c1 [Compound 85, (S)-4-(3-hydroxyphenyl)-3-methylene-1-(3,4,5-trimethoxyphenyl)azetidin-2-one] | 10500 | 15000 | 6640 | 14500 |
| C=C1C(=O)N(c2cc(OC)c(OC)c(OC)c2)[C@H]1c1ccc(OC)c(OCCCNC(=O)OCc2ccccc2)c1 [Compound 17, (S)-benzyl (3-(2-methoxy-5-(3-methylene-4-oxo-1-(3,4,5-trimethoxyphenyl)azetidin-2-yl)phenoxy)propyl)carbamate] | > 10000 | > 10000 | > 10000 | > 10000 |
| C=C1C(=O)N(c2cc(OC)c(OC)c(OC)c2)[C@H]1c1ccc(OC)c(N)c1 [Compound 41, (S)-4-(3-amino-4-methoxyphenyl)-3-methylene-1-(3,4,5-trimethoxyphenyl)azetidin-2-one] | 31 | 32 | 40 | 36 |
| COc1ccc([C@H]2CC(=O)N2c2cc(OC)c(OC)c(OC)c2)cc1O [Compound 67, (R)-4-(3-hydroxy-4-methoxyphenyl)-1-(3,4,5-trimethoxyphenyl)azetidin-2-one] | 22 | 30 | 28 | 24 |
| C=C1C(=O)N(c2cc(OC)c(OC)c(OC)c2)[C@H]1c1cccc(OC)c1 [Compound 86, (S)-4-(3-methoxyphenyl)-3-methylene-1-(3,4,5-trimethoxyphenyl)azetidin-2-one] | 2290 | 12300 | 6320 | 8180 |
| C=C1C(=O)N(c2cc(OC)c(OC)c(OC)c2)[C@H]1c1ccc(OC)c(OC(=O)c2ccccc2OC)c1 [Compound 21, (S)-2-methoxy-5-(3-methylene-4-oxo-1-(3,4,5-trimethoxyphenyl)azetidin-2-yl)phenyl 2-methoxybenzoate] | 201 | 106 | 218 | 155 |
| C=C1C(=O)N(c2cc(OC)c(OC)c(OC)c2)[C@H]1c1ccc(OC)c(OCC(N)=O)c1 [Compound 16, (S)-2-(2-methoxy-5-(3-methylene-4-oxo-1-(3,4,5-trimethoxyphenyl)azetidin-2-yl)phenoxy)acetamide] | 316 | 818 | 503 | 698 |
| COc1ccc([C@H]2[C@H](NS(C)(=O)=O)C(=O)N2c2cc(OC)c(OC)c(OC)c2)cc1O [Compound 79, N-((2S,3S)-2-(3-hydroxy-4-methoxyphenyl)-4-oxo-1-(3,4,5-trimethoxyphenyl)azetidin-3-yl)methanesulfonamide] | 164 | 192 | 254 | 231 |
| C=C1C(=O)N(c2cc(OC)c(OC)c(OC)c2)[C@H]1c1ccc(OC)c(OC(=O)c2ccc(OC)cc2)c1 [Compound 96, (S)-2-methoxy-5-(3-methylene-4-oxo-1-(3,4,5-trimethoxyphenyl)azetidin-2-yl)phenyl 4-methoxybenzoate] | 125 | 139 | 284 | 258 |
| COc1ccc([C@H]2[C@H](Br)C(=O)N2c2cc(OC)c(OC)c(OC)c2)cc1O [Compound 66, (3S,4S)-3-bromo-4-(3-hydroxy-4-methoxyphenyl)-1-(3,4,5-trimethoxyphenyl)azetidin-2-one] | 8 | 13 | 10 | 9 |
| C=C1C(=O)N(c2cc(OC)c(OC)c(OC)c2)[C@H]1c1ccc(OC)c(OS(=O)(=O)c2ccc(C)cc2)c1 [Compound 27, (S)-2-methoxy-5-(3-methylene-4-oxo-1-(3,4,5-trimethoxyphenyl)azetidin-2-yl)phenyl 4-methylbenzenesulfonate] | 6670 | 17800 | 12800 | 12100 |
